Reference: patent publication US20240409585A1, “MACROCYCLIC IMMUNOMODULATORS” (priority 2021, published 2024)
Numbered stars: 1 amine (or outer) side, 2 acyl side, 3 side chain; on linkers, the order of the positions; unused ones are H or OH. Bridge positions count the residues as written; N and C are the ends. Square brackets hold non-standard residues; d marks the D form. Peptide text beside a SMILES is read from it. * marks the point of attachment. X10 = O=C(CCc1c[nH]cn1)NCc1cccc(C[C@H](N[*:1])C(=O)[*:2])c1; X13 = O=C(CCc1ccccc1)NCc1cccc(C[C@H](N[*:1])C(=O)[*:2])c1; Phe(3-OCH2COOH) = N[C@@H](Cc1cccc(OCC(=O)O)c1)C(=O)O; Phe(3,4-Cl2) = N[C@@H](Cc1ccc(Cl)c(Cl)c1)C(=O)O; X3 = CC(=O)NCc1cccc(C[C@H](N[*:1])C(=O)[*:2])c1; Ala(morpholin-4-yl) = N[C@@H](CN1CCOCC1)C(=O)O; Phe(4-COOH) = N[C@@H](Cc1ccc(C(=O)O)cc1)C(=O)O; Phe(2,4-Cl2) = N[C@@H](Cc1ccc(Cl)cc1Cl)C(=O)O; X4 = O=C([C@H](Cc1ccc2cc[nH]c2c1)N[*:1])[*:2]; Bip = N[C@@H](Cc1ccc(-c2ccccc2)cc1)C(=O)O; Phe(3-OMe) = COc1cccc(C[C@H](N)C(=O)O)c1; Phe(3-NH2) = Nc1cccc(C[C@H](N)C(=O)O)c1; Phe(3-I) = N[C@@H](Cc1cccc(I)c1)C(=O)O; Phe(3-Me) = Cc1cccc(C[C@H](N)C(=O)O)c1; 2Pal = N[C@@H](Cc1ccccn1)C(=O)O; 3Pal = N[C@@H](Cc1cccnc1)C(=O)O; Cha = N[C@@H](CC1CCCCC1)C(=O)O; Carboxymethyl = O=C(O)C*; NMeA = CN[C@@H](C)C(=O)O; Orn = NCCC[C@H](N)C(=O)O; Dab = NCC[C@H](N)C(=O)O

Legend:
[1] = target: T1, PE-labeled human PD-L1-Ig binding to Jurkat cell line over-expressing human PD-1 (Jurkat-PD-1) (Homo sapiens, UniProt Q15116); test: Jurkat-PD-1 Cell Binding High-Content Screening Assay (CBA): Method 2 (presence and absence of tween-20); conditions: Jurkat-PD-1 cells, PE-labeled PD-L1-Ig 20 nM; presence or absence of tween-20 not given; head μM; read-out: CBA Method 2 μM
T1 construct: expressed in transfected cells; host or cells: Jurkat
Procedure: Jurkat-PD-1 Cell Binding High-Content Screening Assay (CBA): Method 2
Phycoerythrin (PE) was covalently linked to the Ig epitope tag of human PD-L1-Ig and fluorescently labeled PD-L1-Ig was used for binding studies with a Jurkat cell line over-expressing human PD-1 (Jurkat-PD-1). […] 100 nl of compound was added to cells followed by incubation at 37° C. for 2 hours. To interrogate potential issues with compound aggregation, compounds were tested in the presence and absence of tween-20 detergent. […] Then, 5 μl of PE-labeled PD-L1-Ig (20 nM final), diluted in DMEM supplemented with 10% fetal calf serum. […] Data was collected and processed using a Cell Insight NXT High Content Imager and associated software.

[2] = target: T1, PE-labeled human PD-L1-Ig binding to Jurkat cell line over-expressing human PD-1 (Jurkat-PD-1); test: Jurkat-PD-1 Cell Binding High-Content Screening Assay (CBA): Method 1; conditions: Jurkat-PD-1 cells, PE-labeled PD-L1-Ig; μM; read-out: CBA Method 1 μM

T1 sequence (Q15116 25-288): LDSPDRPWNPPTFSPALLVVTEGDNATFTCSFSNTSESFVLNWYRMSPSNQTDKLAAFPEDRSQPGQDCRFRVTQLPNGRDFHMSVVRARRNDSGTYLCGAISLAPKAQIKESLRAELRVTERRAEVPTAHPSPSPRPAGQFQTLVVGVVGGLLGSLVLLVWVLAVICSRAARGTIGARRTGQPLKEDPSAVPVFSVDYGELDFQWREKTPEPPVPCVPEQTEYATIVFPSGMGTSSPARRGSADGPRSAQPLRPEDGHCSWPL

| Compound | IC50 [1] [µM] | IC50 [2] [µM] |
| --- | --- | --- |
| CC(=O)NCc1cccc(C[C@@H]2NC(=O)CSC[C@@H](C(=O)N[C@@H](CCN)C(N)=O)NC(=O)[C@H](CCCN)NC(=O)[C@H](C(C)C)NC(=O)[C@H](CC3CCCCC3)NC(=O)[C@H](CCN)NC(=O)[C@@H](CC(C)C)NC(=O)[C@H](C)N(C)C(=O)[C@H](CCC(N)=O)NC(=O)[C@H](Cc3ccc(-c4ccccc4)cc3)NC(=O)[C@H](Cc3ccc(C(=O)O)cc3)NC(=O)[C@H](Cc3cccc(C)c3)NC(=O)[C@H](CC(=O)O)NC(=O)[C@H](Cc3ccc(OCC(=O)O)cc3)NC2=O)c1 [Example 5033] ({CH2CO}-[X3]Y(Carboxymethyl)D[Phe(3-Me)][Phe(4-COOH)][Bip]Q[NMeA][dL][Dab][Cha]V[Orn]C[Dab]-NH2; thioether N-14) | 0.0033 | 0.0032 |
| Cc1cccc(C[C@@H]2NC(=O)[C@H](CC(=O)O)NC(=O)[C@H](Cc3ccc(OCC(=O)O)cc3)NC(=O)[C@H](Cc3cccc(CNC(=O)CCc4ccccc4)c3)NC(=O)CSC[C@@H](C(=O)N[C@@H](CCN)C(N)=O)NC(=O)[C@H](CCCN)NC(=O)[C@H](C(C)C)NC(=O)[C@H](CC3CCCCC3)NC(=O)[C@H](CCN)NC(=O)[C@@H](CC(C)C)NC(=O)[C@H](C)N(C)C(=O)[C@H](CCC(N)=O)NC(=O)[C@H](Cc3ccc(-c4ccccc4)cc3)NC(=O)[C@H](Cc3ccc(C(=O)O)cc3)NC2=O)c1 [Example 5034] ({CH2CO}-[X13]Y(Carboxymethyl)D[Phe(3-Me)][Phe(4-COOH)][Bip]Q[NMeA][dL][Dab][Cha]V[Orn]C[Dab]-NH2; thioether N-14) | 0.0031 | 0.0051 |
| Cc1cccc(C[C@@H]2NC(=O)[C@H](CC(=O)O)NC(=O)[C@H](Cc3ccc(OCC(=O)O)cc3)NC(=O)[C@H](CN3CCOCC3)NC(=O)CSC[C@@H](C(=O)N[C@@H](CCN)C(N)=O)NC(=O)[C@H](CCCN)NC(=O)[C@H](C(C)C)NC(=O)[C@H](CC3CCCCC3)NC(=O)[C@H](CCN)NC(=O)[C@@H](CC(C)C)NC(=O)[C@H](C)N(C)C(=O)[C@H](CCC(N)=O)NC(=O)[C@H](Cc3ccc(-c4ccccc4)cc3)NC(=O)[C@H](Cc3ccc4cc[nH]c4c3)NC2=O)c1 [Example 5037] ({CH2CO}-[Ala(morpholin-4-yl)]Y(Carboxymethyl)D[Phe(3-Me)][X4][Bip]Q[NMeA][dL][Dab][Cha]V[Orn]C[Dab]-NH2; thioether N-14) | 0.0304 | 0.0138 |
| Cc1cccc(C[C@@H]2NC(=O)[C@H](CC(=O)O)NC(=O)[C@H](Cc3ccc(OCC(=O)O)cc3)NC(=O)[C@H](CN3CCOCC3)NC(=O)CSC[C@@H](C(=O)N[C@@H](CCN)C(N)=O)NC(=O)[C@H](CCCN)NC(=O)[C@H](C(C)C)NC(=O)[C@H](Cc3cccnc3)NC(=O)[C@H](CCN)NC(=O)[C@@H](CC(C)C)NC(=O)[C@H](C)N(C)C(=O)[C@H](CCC(N)=O)NC(=O)[C@H](Cc3ccc(-c4ccccc4)cc3)NC(=O)[C@H](Cc3ccc(C(=O)O)cc3)NC2=O)c1 [Example 5039] ({CH2CO}-[Ala(morpholin-4-yl)]Y(Carboxymethyl)D[Phe(3-Me)][Phe(4-COOH)][Bip]Q[NMeA][dL][Dab][3Pal]V[Orn]C[Dab]-NH2; thioether N-14) | 0.0607 | 0.0729 |
| Cc1cccc(C[C@@H]2NC(=O)[C@H](CC(=O)O)NC(=O)[C@H](Cc3ccc(OCC(=O)O)cc3)NC(=O)[C@H](CN3CCOCC3)NC(=O)CSC[C@@H](C(=O)N[C@@H](CCN)C(N)=O)NC(=O)[C@H](CCCN)NC(=O)[C@H](C(C)C)NC(=O)[C@H](Cc3cccc(N)c3)NC(=O)[C@H](CCN)NC(=O)[C@@H](CC(C)C)NC(=O)[C@H](C)N(C)C(=O)[C@H](CCC(N)=O)NC(=O)[C@H](Cc3ccc(-c4ccccc4)cc3)NC(=O)[C@H](Cc3ccc(C(=O)O)cc3)NC2=O)c1 [Example 5040] ({CH2CO}-[Ala(morpholin-4-yl)]Y(Carboxymethyl)D[Phe(3-Me)][Phe(4-COOH)][Bip]Q[NMeA][dL][Dab][Phe(3-NH2)]V[Orn]C[Dab]-NH2; thioether N-14) | 0.0146 | 0.0159 |
| Cc1cccc(C[C@@H]2NC(=O)[C@H](CC(=O)O)NC(=O)[C@H](Cc3ccc(OCC(=O)O)cc3)NC(=O)[C@H](CN3CCOCC3)NC(=O)CSC[C@@H](C(=O)N[C@@H](CCN)C(N)=O)NC(=O)[C@H](CCCN)NC(=O)[C@H](C(C)C)NC(=O)[C@H](Cc3ccc(Cl)cc3Cl)NC(=O)[C@H](CCN)NC(=O)[C@@H](CC(C)C)NC(=O)[C@H](C)N(C)C(=O)[C@H](CCC(N)=O)NC(=O)[C@H](Cc3ccc(-c4ccccc4)cc3)NC(=O)[C@H](Cc3ccc(C(=O)O)cc3)NC2=O)c1 [Example 5041] ({CH2CO}-[Ala(morpholin-4-yl)]Y(Carboxymethyl)D[Phe(3-Me)][Phe(4-COOH)][Bip]Q[NMeA][dL][Dab][Phe(2,4-Cl2)]V[Orn]C[Dab]-NH2; thioether N-14) | 0.0822 | 0.0888 |
| Cc1cccc(C[C@@H]2NC(=O)[C@H](CC(=O)O)NC(=O)[C@H](Cc3ccc(OCC(=O)O)cc3)NC(=O)[C@H](CN3CCOCC3)NC(=O)CSC[C@@H](C(=O)N[C@@H](CCN)C(N)=O)NC(=O)[C@H](CCCN)NC(=O)[C@H](C(C)C)NC(=O)[C@H](Cc3ccc(Cl)c(Cl)c3)NC(=O)[C@H](CCN)NC(=O)[C@@H](CC(C)C)NC(=O)[C@H](C)N(C)C(=O)[C@H](CCC(N)=O)NC(=O)[C@H](Cc3ccc(-c4ccccc4)cc3)NC(=O)[C@H](Cc3ccc(C(=O)O)cc3)NC2=O)c1 [Example 5042] ({CH2CO}-[Ala(morpholin-4-yl)]Y(Carboxymethyl)D[Phe(3-Me)][Phe(4-COOH)][Bip]Q[NMeA][dL][Dab][Phe(3,4-Cl2)]V[Orn]C[Dab]-NH2; thioether N-14) | 0.0689 | 0.0639 |

Further compounds by falling IC50 [1], results first:

| IC50 [1] [µM] | IC50 [2] [µM] | Compound |
| --- | --- | --- |
| 0.108 | 0.0987 | CC(C)C[C@@H]1NC(=O)[C@H](Cc2c[nH]c3ccccc23)NC(=O)[C@H](CC(N)=O)NC(=O)[C@H](Cc2cccc(OCC(=O)O)c2)NC(=O)[C@H](Cc2ccccc2)NC(=O)CSC[C@@H](C(=O)NCC(N)=O)NC(=O)[C@H](CO)NC(=O)[C@H](C(C)C)NC(=O)[C@H](CC(C)C)NC(=O)[C@H](CC(N)=O)NC(=O)[C@@H](CC(C)C)NC(=O)[C@H](C)N(C)C(=O)[C@H](C(C)C)NC(=O)[C@H](Cc2ccc(-c3ccccc3)cc2)NC1=O [Example 5032] ({CH2CO}-F[Phe(3-OCH2COOH)]NWL[Bip]V[NMeA][dL]NLVSCG-NH2; thioether N-14) |
| 0.0171 | 0.0425 | Cc1cccc(C[C@@H]2NC(=O)[C@H](CC(=O)O)NC(=O)[C@H](Cc3ccc(OCC(=O)O)cc3)NC(=O)[C@H](CN3CCOCC3)NC(=O)CSC[C@@H](C(=O)N[C@@H](CCN)C(N)=O)NC(=O)[C@H](CCCN)NC(=O)[C@H](C(C)C)NC(=O)[C@H](Cc3ccccn3)NC(=O)[C@H](CCN)NC(=O)[C@@H](CC(C)C)NC(=O)[C@H](C)N(C)C(=O)[C@H](CCC(N)=O)NC(=O)[C@H](Cc3ccc(-c4ccccc4)cc3)NC(=O)[C@H](Cc3ccc(C(=O)O)cc3)NC2=O)c1 [Example 5038] ({CH2CO}-[Ala(morpholin-4-yl)]Y(Carboxymethyl)D[Phe(3-Me)][Phe(4-COOH)][Bip]Q[NMeA][dL][Dab][2Pal]V[Orn]C[Dab]-NH2; thioether N-14) |
| 0.0098 | 0.0098 | COc1cccc(C[C@@H]2NC(=O)[C@H](CCN)NC(=O)[C@@H](CC(C)C)NC(=O)[C@H](C)N(C)C(=O)[C@H](CCC(N)=O)NC(=O)[C@H](Cc3ccc(-c4ccccc4)cc3)NC(=O)[C@H](Cc3ccc(C(=O)O)cc3)NC(=O)[C@H](Cc3cccc(C)c3)NC(=O)[C@H](CC(=O)O)NC(=O)[C@H](Cc3ccc(OCC(=O)O)cc3)NC(=O)[C@H](CN3CCOCC3)NC(=O)CSC[C@@H](C(=O)N[C@@H](CCN)C(N)=O)NC(=O)[C@H](CCCN)NC(=O)[C@H](C(C)C)NC2=O)c1 [Example 5043] ({CH2CO}-[Ala(morpholin-4-yl)]Y(Carboxymethyl)D[Phe(3-Me)][Phe(4-COOH)][Bip]Q[NMeA][dL][Dab][Phe(3-OMe)]V[Orn]C[Dab]-NH2; thioether N-14) |
| 0.0035 | 0.0042 | Cc1cccc(C[C@@H]2NC(=O)[C@H](CC(=O)O)NC(=O)[C@H](Cc3ccc(OCC(=O)O)cc3)NC(=O)[C@H](Cc3cccc(CNC(=O)CCc4c[nH]cn4)c3)NC(=O)CSC[C@@H](C(=O)N[C@@H](CCN)C(N)=O)NC(=O)[C@H](CCCN)NC(=O)[C@H](C(C)C)NC(=O)[C@H](CC3CCCCC3)NC(=O)[C@H](CCN)NC(=O)[C@@H](CC(C)C)NC(=O)[C@H](C)N(C)C(=O)[C@H](CCC(N)=O)NC(=O)[C@H](Cc3ccc(-c4ccccc4)cc3)NC(=O)[C@H](Cc3ccc(C(=O)O)cc3)NC2=O)c1 [Example 5035] ({CH2CO}-[X10]Y(Carboxymethyl)D[Phe(3-Me)][Phe(4-COOH)][Bip]Q[NMeA][dL][Dab][Cha]V[Orn]C[Dab]-NH2; thioether N-14) |
| 0.0031 | 0.0045 | Cc1cccc(C[C@@H]2NC(=O)[C@H](CC(=O)O)NC(=O)[C@H](Cc3ccc(OCC(=O)O)cc3)NC(=O)[C@H](Cc3cccc(I)c3)NC(=O)CSC[C@@H](C(=O)N[C@@H](CCN)C(N)=O)NC(=O)[C@H](CCCN)NC(=O)[C@H](C(C)C)NC(=O)[C@H](CC3CCCCC3)NC(=O)[C@H](CCN)NC(=O)[C@@H](CC(C)C)NC(=O)[C@H](C)N(C)C(=O)[C@H](CCC(N)=O)NC(=O)[C@H](Cc3ccc(-c4ccccc4)cc3)NC(=O)[C@H](Cc3ccc(C(=O)O)cc3)NC2=O)c1 [Example 5036] ({CH2CO}-[Phe(3-I)]Y(Carboxymethyl)D[Phe(3-Me)][Phe(4-COOH)][Bip]Q[NMeA][dL][Dab][Cha]V[Orn]C[Dab]-NH2; thioether N-14) |
